Where a name gives a salt, the structure may show the parent alone. Read-outs that look alike come from different tables or passages of the source.
Key:
[1] = In vitro single hydrotrope permeability experiments, coated artificial membranes (Franz cell); assay type: in vitro ADME
Method: The solutions thus contain the exact same concentration of active agent in the presence or absence of hydrotrope. The samples may then be tested for permeability through an artificial membrane under identical conditions so that the effect of the hydrotrope on the permeability of the active can be assessed.
Regenerated cellulose membrane filters are coated with lecithin in dodecane for permeation experiments. […] Air bubbles are removed before donor chamber is clamped. The filter is incubated for 1 h and any excess lecithin solution is then removed. All samples are continuously stirred on a magnetic plate at 300 rpm for duration of pre-incubation and subsequent permeation experiment.
After membrane preparation and equilibration, 240 uL each of formulation at buffer pH 6.8 are added to the donor chamber.

[2] = cited from earlier work; for logP: as listed in table of actives by hydrotrope class; for log P: list of suitable active agents
[3] = system: porcine buccal mucosa; assay: Ex vivo permeability experiments, porcine buccal membranes in Franz cells; assay type: in vitro ADME, domestic pigs (Sus scrofa domestica)
Method: Buccal tissue from domestic pigs (Sus scrofa domestica) were obtained from a local abattoir directly after slaughter and immediately placed on ice. Within 2 hours of collection, tissue is prepared for delivery experiments. For permeation experiments tissue is placed in pH 6.8 PBS and epithelium separated from the connective tissue using surgical dissection or by contact in solution (pH 6.8 PBS) heated to 65° C. for 60 seconds. Surgical dissection is preferred method for maintaining intact epithelia with minimal impact on integrity which can occur with heating. After isolation, tissue is placed on Franz cell receiver chamber filled with PBS at pH optimised for permeant solubility and containing micro-stirring bar. Air bubbles are removed before donor chamber is clamped. The exposed epithelial surface is pre-incubated in pH 6.8 PBS in air incubator heated to 37° C. for minimum 15 minutes to equilibrate to temperature. All samples are continuously stirred on a magnetic plate at 300 rpm for duration of pre -incubation and subsequent permeation experiment. After equilibration, the donor chamber buffer is removed by pipette and replaced with active agent solution to be tested. […] At time 0 samples of 200 ul is removed from receiver chamber and 200 ul volume replaced with buffer. Samples taken at timed intervals (standard 15, 30, 60 minutes) are 200 ul volumes removed from side arm of receiver chamber using gel-loading pipette tips. Removed samples are placed in HPLC tubes for HPLC analysis. After each sample is taken the 200 ul volume is replaced with PBS […] buffer to maintain constant volume in receiver chamber (which will dilute slightly each subsequent sample).

[4] = In vivo studies in rabbits, buccal administration, blood PK; design: species or system rabbits (Oryctolagus cuniculus) New Zealand White; settings: rabbit, buccal single dose 20 mg, 2.5% caffeine and 7.5% nicotinamide (F4) in comparison to the Base formulation, FIG. 14
Method: Ten male rabbits (Oryctolagus cuniculus) Strain New Zealand White (NZW) aged 8-12 weeks were delivered 5 days prior to the experiment for acclimatisation. The animals were kept in a controlled environment (targeted ranges: temperature 21±3° C., humidity 30-70%), with a light/dark cycle each of 12 hours, and under barrier (quarantine) conditions. Temperature and relative humidity was monitored continuously throughout the study duration. Feed consisted of Rabbit and Guinea Pig pellets. Municipal town water was supplied ad libitum. Dietary enrichment was provided during the acclimation period in the form of fresh fruit and vegetables. Enrichment items were not provided following randomisation into study groups and during dose administration.
Prior to dose administration, a total of ten male NZW rabbits were randomized into two groups of five based on body weight. Each animal group was allocated to receive a different sildenafil Formulation (either sildenafil Formulation 4 (F4) or sildenafil Base formulation (see Example 2)). […]
Portions of whole blood (400 μL) were collected into K2EDTA blood tubes then centrifuged and the resulting […] prior to analysis by LC-MS/MS. Peak concentration in blood (Cmax), Time to reach Cmax (Tmax), half-life (t1/2) and area under curve (AUC) were calculated.

[5] = single hydrotrope screen, formulation at buffer pH 6.8, same active concentration with and without hydrotrope
[6] = as listed with results of FIGS. 3-9
[7] = formulated with Class A hydrotrope caffeine, sweeteners and flavours vs same formulation minus the hydrotrope content, FIG. 13
[8] = sildenafil citrate formulations containing hydrotropes (Table 4) vs Base, FIGS. 11A and 11B

| SMILES | penetration through an artificial membrane in the presence of various hydrotropes (most effective hydrotrope) [1, 5] | logP [2] | log P or log D [2, 6] | log P [2] | other results |
| --- | --- | --- | --- | --- | --- |
| O=C(O)Cc1ccccc1Nc1c(Cl)cccc1Cl [Diclofenac sodium, diclofenac sodium] | – | – | – | – | penetration through an artificial membrane in the presence of various hydrotropes (most effective hydrotrope) ([1]; hydroalcoholic solution): caffeine most effective; log P or log D ([2]; hydroalcoholic solution): 4.75 |
| CN(C)CCOC(C)(c1ccccc1)c1ccccn1 (stereo not shown) [Doxylamine succinate, doxylamine succinate] | benzoic acid most effective | 2.96 | 2.9 | – | early permeation [3, 7]: does not affect; total permeation [3, 7]: increases total permeation |
| CC(C)Cc1ccc(C(C)C(=O)O)cc1 (stereo not shown) [Ibuprofen, ibuprofen] | no improvement | – | 3.5 | – | – |
| Cc1nccn1CC1CCc2c(c3ccccc3n2C)C1=O (stereo not shown) [Ondansetron HCl, ondansetron hydrochloride] | nicotinamide or caffeine most effective | Ondansetron HCl (logP 2.4 | 2.4 | 2.4 | hydrotrope class giving the greatest increases in permeability [1]: Class A hydrotropes |
| CCCc1nn(C)c2c(=O)[nH]c(-c3cc(S(=O)(=O)N4CCN(C)CC4)ccc3OCC)nc12 [Sildenafil citrate, sildenafil citrate] | – | – | – | – | bioavailability of sildenafil [4]: marked increase; log D ([2]; pH 7): 1.6; log P or log D ([2]; pH 7): 1.6 |
| CNS(=O)(=O)Cc1ccc2[nH]cc(CCN(C)C)c2c1 [Sumatriptan succinate, sumatriptan succinate] | benzoic acid most effective | Sumatriptan succinate (logP 0.93 | 1.7 | 0.93 | log D ([2]; pH 6): 1.7 |
| Cc1ccc(-c2nc3ccc(C)cn3c2CC(=O)N(C)C)cc1 [Zolpidem tartrate, zolpidem tartrate] | citric acid most effective | Zolpidem tartrate (logP 1.2 | 1.2 | 1.2 | – |
| Cn1c(=O)c2c(ncn2C)n(C)c1=O [caffeine] | – | – | – | – | effect on early permeation [3, 8]: limited effect; effect on total permeation [3, 8]: increases total permeation |
